According to US20240263138A1, “METHODS FOR PREPARING A FOOD INGREDIENT AND COMPOSITIONS PRODUCED THEREBY” (SuperMeat the Essence of Meat Ltd., priority 2021, published 2024):

Test system: SM ES cells
Experiment: Direct differentiation of SM ES cells cultured with oleic acid
Assay type: cell-based, chicken
Details: culturing in the presence of 300 uM, direct differentiation protocol
Protocol: As used herein “direct differentiation protocol” refers to the addition of FAs at high concentrations to a stem cell culture e.g., pluripotent stem cells, (above 25 uM or above 100 uM, when serum is absent or present in the culture) stem cells in order to allow the cells to accumulate fat. […] Next step was to test the ability to control the fatty acid profile of SM ES cells by growing the cells in the presence of certain or several fatty acids (FAs), dependent on the selected edible species.

SMILES: CCCCCCCC/C=C\CCCCCCCC(=O)O [oleic acid]
- proportion of oleic acid (OA) within cells: double
